Target: Coagulation factor X (Homo sapiens, UniProt P00742)
Assay: Binding affinity at factor 10a

Sequence of Coagulation factor X (P00742 41-179 limits assumed): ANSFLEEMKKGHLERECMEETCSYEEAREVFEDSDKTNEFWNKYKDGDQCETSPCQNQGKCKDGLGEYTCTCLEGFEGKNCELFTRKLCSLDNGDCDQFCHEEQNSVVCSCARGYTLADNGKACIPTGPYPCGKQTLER
Sequence of Coagulation factor X (P00742 235-488 limits assumed): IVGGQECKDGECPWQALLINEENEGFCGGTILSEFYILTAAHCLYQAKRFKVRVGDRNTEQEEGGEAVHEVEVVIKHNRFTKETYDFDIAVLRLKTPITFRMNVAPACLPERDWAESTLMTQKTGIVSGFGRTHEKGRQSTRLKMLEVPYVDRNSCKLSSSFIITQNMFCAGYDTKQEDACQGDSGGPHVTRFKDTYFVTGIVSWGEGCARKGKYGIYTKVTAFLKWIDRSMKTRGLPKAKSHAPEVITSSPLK

SMILES | Ki
C[C@@H](C(=O)N1CCOCC1)N1CC[C@H](NS(=O)(=O)c2cc3cc(Cl)ccc3o2)C1=O | 782 nM
C[C@@H](C(=O)N1CCOCC1)N1CC[C@H](NS(=O)(=O)c2cc3ccc(Cl)cc3o2)C1=O | 285 nM
C[C@@H](C(=O)N1CCOCC1)N1CC[C@H](NS(=O)(=O)c2nc3ccc(Cl)cc3s2)C1=O | 4160 nM

The next compounds have a lower Ki than those just listed; values first:

Ki | SMILES
15 nM | C[C@@H](C(=O)N1CCOCC1)N1CC[C@H](NS(=O)(=O)c2cc3ccc(Cl)cc3s2)C1=O
47 nM | C[C@@H](C(=O)N1CCOCC1)N1CC[C@H](NS(=O)(=O)c2cc3cc(Cl)ccc3s2)C1=O
170 nM | C[C@@H](C(=O)N1CCOCC1)N1CC[C@H](NS(=O)(=O)c2cc3ccc(Cl)cc3[nH]2)C1=O
112 nM | C[C@@H](C(=O)N1CCOCC1)N1CC[C@H](NS(=O)(=O)c2nc3cc(Cl)ccc3s2)C1=O
90 nM | C[C@@H](C(=O)N1CCOCC1)N1CC[C@H](NS(=O)(=O)c2cc3cc(Cl)ccc3[nH]2)C1=O
